Test system: Vero 76 cells viability (cytotoxicity)
Experiment: Vero 76 cell cytotoxicity, dose response, cytotoxicity control, set 4 (AID 623936)

Work on `CN(C(=O)Cc1cccs1)c1nc2c(s1)CCCC2` yielded a CC50 of 18.5 µM.

From PubChem BioAssay AID623936 (Southern Research Specialized Biocontainment Screening …, 2012)
